ChEMBL document CHEMBL6182866, “Design, synthesis, molecular docking and ADME of novel phenylalanine derivatives as mushroom tyrosinase inhibitors” (Bioorg Med Chem Lett, 2025)
The source made the active and inactive calls. The calls are words filed in the database; no cut-off is given here.

Assays:
[1] = target: Mushroom tyrosinase (Agaricus bisporus, UniProt O42713+Q00024+C7FF04+C7FF05); assay: Inhibition of mushroom tyrosinase using L-DOPA as substrate assessed as reduction in diphenolase activity; format: protein assay
[2] = target: T1, Tyrosinase (Homo sapiens) (UniProt P14679); assay: Inhibition of human TYR using L-DOPA as substrate assessed as reduction in diphenolase activity by absorbance based assay
T1 sequence (whole entry): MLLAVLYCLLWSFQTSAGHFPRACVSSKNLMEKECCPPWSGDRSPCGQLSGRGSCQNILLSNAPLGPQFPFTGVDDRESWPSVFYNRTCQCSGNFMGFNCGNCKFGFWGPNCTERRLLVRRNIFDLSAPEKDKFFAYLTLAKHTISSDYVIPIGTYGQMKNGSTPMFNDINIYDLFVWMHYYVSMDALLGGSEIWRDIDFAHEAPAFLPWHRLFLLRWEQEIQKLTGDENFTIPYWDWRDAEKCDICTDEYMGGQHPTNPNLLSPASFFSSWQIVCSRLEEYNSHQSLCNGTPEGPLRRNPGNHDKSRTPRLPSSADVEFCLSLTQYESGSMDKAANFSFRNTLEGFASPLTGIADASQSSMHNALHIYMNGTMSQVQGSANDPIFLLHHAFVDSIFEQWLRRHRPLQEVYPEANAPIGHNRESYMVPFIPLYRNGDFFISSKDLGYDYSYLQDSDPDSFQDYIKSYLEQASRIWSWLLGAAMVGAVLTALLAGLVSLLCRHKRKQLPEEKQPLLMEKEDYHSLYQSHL

[3] = target: T2, Mushroom tyrosinase (Agaricus bisporus) (UniProt O42713+Q00024+C7FF04+C7FF05); assay: Reversible inhibition of mushroom tyrosinase using L-DOPA as substrate up to 10 uM; format: protein assay
[4] = target: T2, Mushroom tyrosinase (Agaricus bisporus); assay: Competitive inhibition of mushroom tyrosinase using L-DOPA as substrate assessed as increase in Km with constant Vmax up to 10 uM by Lineweaver-Burk plot analysis; format: protein assay

Compound	IC50 [1] [µM]	other results
O=C(OCc1ccc([N+](=O)[O-])cc1)C(Cc1ccccc1)NCc1ccc([N+](=O)[O-])cc1 (configuration not stated)	10.58	–
O=C(OCc1ccc(F)cc1)C(Cc1ccccc1)NCc1ccc(Cl)cc1Cl (configuration not stated)	8.33	–
O=C(OCc1ccc(F)cc1)C(Cc1ccccc1)NCc1ccc([N+](=O)[O-])cc1 (configuration not stated)	11.77	–
O=C(OCc1ccc([N+](=O)[O-])cc1)C(Cc1ccccc1)NCc1ccc(Br)cc1 (configuration not stated)	11.95	–
O=C(OCc1ccc([N+](=O)[O-])cc1)C(Cc1ccccc1)NCc1ccccc1Cl (configuration not stated)	16.99	–
O=c1cc(CCl)occ1O	33.05	–
O=C(O)C(Cc1ccccc1)NCc1ccc([N+](=O)[O-])cc1 (configuration not stated)	42.4	–
O=C(O)C(Cc1ccccc1)NCc1ccccc1Cl (configuration not stated)	> 100	–
O=C(OCc1ccc(F)cc1)C(Cc1ccccc1)NCc1ccccc1Cl (configuration not stated)	18.2	–
O=C(O)C(Cc1ccccc1)NCc1ccc(Cl)cc1Cl (configuration not stated)	> 100	–
O=C(O)C(Cc1ccccc1)NCc1ccc(Br)cc1 (configuration not stated)	31.05	–
O=C(OCc1ccc(F)cc1)C(Cc1ccccc1)NCc1ccc(Br)cc1 (configuration not stated)	16.07	–
CC(C)C(=O)Nc1nc(-c2ccc(O)cc2O)cs1	48.12	–

More lines, main results first:

IC50 [1] [µM]	Compound	other results
6.11	O=C(OCc1ccc(F)cc1)C(Cc1ccccc1)NCc1ccc(Cl)c([N+](=O)[O-])c1 (configuration not stated)	–
4.86	O=C(OCc1ccc([N+](=O)[O-])cc1)C(Cc1ccccc1)NCc1ccc(Cl)c([N+](=O)[O-])c1 (configuration not stated)	inhibition [2]: Dose-dependent-effect; inhibition [3]: Active; inhibition [4]: Active
> 100	O=C(O)C(Cc1ccccc1)NCc1ccc(Cl)c([N+](=O)[O-])c1 (configuration not stated)	–
15.26	O=C(OCc1cc(=O)c(O)co1)C(Cc1ccccc1)NCc1ccc(Br)cc1 (configuration not stated)	–
20.64	O=C(OCc1cc(=O)c(O)co1)C(Cc1ccccc1)NCc1ccccc1Cl (configuration not stated)	–
13.43	O=C(OCc1cc(=O)c(O)co1)C(Cc1ccccc1)NCc1ccc([N+](=O)[O-])cc1 (configuration not stated)	–
10.35	O=C(OCc1cc(=O)c(O)co1)C(Cc1ccccc1)NCc1ccc(Cl)cc1Cl (configuration not stated)	inhibition [3]: Active; inhibition [4]: Active
6.78	O=C(OCc1ccc([N+](=O)[O-])cc1)C(Cc1ccccc1)NCc1ccc(Cl)cc1Cl (configuration not stated)	–
11.65	O=C(OCc1cc(=O)c(O)co1)C(Cc1ccccc1)NCc1ccc(Cl)c([N+](=O)[O-])c1 (configuration not stated)	–
